# According to article PMC8424629, “Chemical “Butterfly Effect” Explaining the Coordination Chemistry and Antimicrobial Properties of Clavanin Complexes” (Inorganic Chemistry, 2021):
# Where two headings read alike, the source gives them in different places.
# Key:
# [1] = tested on: Escherichia coli ATCC 25922; experiment: microbe, parasite or virus in culture; conditions: ATCC25922, 24 h
# [2] = tested on: MRSA Staphylococcus aureus ATCC 43300; conditions: ATCC 43300, 24 h
# [3] = tested on: Escherichia coli ATCC 25922; conditions: ATCC 25922, 24 h
# [4] = tested on: Enterococcus faecalis ATCC 29212; conditions: ATCC 29212, 24 h
# [5] = tested on: Candida albicans ATCC 10231; conditions: ATCC 10231, 24 h
# [6] = assay type: physicochemical
# Procedure: (§1) All peptides ([…]-COOH, […]-COOH, […]
# (§2) were purchased from KareBay Biochem (USA) (certified purity: 98 %) and were used as received.
# (§3) The carbonate-free stock solutions of 0.1 M NaOH were purchased from Sigma-Aldrich and then potentiometrically standardized with the primary standard potassium hydrogen phthalate (99.9 % purity). […]
# (§4) Stability constants for proton, Zn(II) and Cu(II) complexes were calculated from pH -metric titration curves carried out over the pH range 2-11 at T = 298 K in water solution of 4 mM HClO 4 and ionic strength 40 mM (SDS), using a total volume of 3 ml. The potentiometric titrations were performed using a Metrohm Titrando 905 titrator and a Mettler Toledo InLab Micro comb ined pH electrode. The thermostabilized glass -cell was equipped with a magnetic stirring system, a microburette delivery tube and an inlet –outlet tube for argon.
# (§5) Solutions were titrated with 0.1 M carbonate-free NaOH. The electrodes were calibrated daily f or hydrogen ion concentration by titrating HClO 4 with NaOH under the same experimental conditions as above. The purities and the exact concentrations of the ligand solutions were determined by the Gran method. 1 The ligand concentration was 0.5 mM. The Zn(II) and Cu(II) to ligand ratio was 1 : 1.
# (§6) The standard potential and the slope of the electrode couple were computed by means of Glee 2 program. The HYPERQUAD 20063 program was used for the stability constant calculations. The standard deviations were computed by HYPERQUAD 2006 and refer to random errors only. The constants for the hydrolytic Zn(II ) species
# [7] = assay type: binding
# Procedure: as §1, §2, §3, §4, §5, §6
# [8] = tested on: MRSA Staphylococcus aureus ATCC 43300; experiment: microbe, parasite or virus in culture; conditions: 24 h
# [9] = tested on: Pseudomonas aeruginosa ATCC 27853; experiment: MIC, broth microdilution, reference strain; assay type: cell-based; conditions: ATCC27853, microdilution 0.5-256 µg/mL, TSB, 24 h, 37 °C, OD 580 nm
# [10] = tested on: Enterococcus faecalis ATCC 29212; experiment: microbe, parasite or virus in culture; conditions: ATCC29212, 24 h
# [11] = tested on: Candida albicans ATCC 10231; experiment: microbe, parasite or virus in culture; conditions: ATCC10231, 24 h
# [12] = potentiometry pH 2-11, 298 K, 4 mM HClO4, I = 40 mM SDS, ligand 0.5 mM, SD in parentheses
# [13] = potentiometry, 298 K, I = 40 mM SDS, Cu(II):L 1:1, 0.5 mM, SD in parentheses
# [14] = potentiometry, 298 K, I = 40 mM SDS, Zn(II):L 1:1, 0.5 mM, SD in parentheses
molecule,measurement,setting,value
CNC(C)C1CCC(N)C(OC2C(N)CC(N)C(OC3OCC(C)(O)C(NC)C3O)C2O)O1 (stereo not drawn) [gentamicin],MIC,[1],2 µg/mL
H-AFKLLGRIIHHVGNFVYGFSHVF-OH [Clavanin D],MIC,[2],128 µg/mL
same,MIC,[3],64 µg/mL
same,MIC,[4],128 µg/mL
same,MIC,[5],16 µg/mL
same,"pKa, species H2L",[6],10.08
same,"pKa, species H3L",[6],8.68
same,"pKa, species H4L",[6],7.81
same,"pKa, species H5L",[6],7.24
same,"pKa, species H6L",[6],5.26
same,"pKa, species HL",[6],11.13
same,log β H2L,[6]; [12],21.21 (4)
same,log β H3L,[6]; [12],29.89 (5)
same,log β H4L,[6]; [12],37.70 (5)
same,log β H5L,[6]; [12],44.94 (5)
same,log β H6L,[6]; [12],50.20 (5)
same,log β HL,[6]; [12],11.13 (6)
same,"pKa, line CuH2L",[7],6.95
same,"pKa, line CuH3L",[7],6.00
same,"pKa, line CuH4L",[7],5.23
same,"pKa, line CuH-1L",[7],9.92
same,"pKa, line CuH-2L",[7],10.54
same,"pKa, line CuH-3L",[7],11.91
same,"pKa, line CuHL",[7],7.94
same,"pKa, line CuL",[7],8.79
same,"pKa, line ZnH2L",[7],8.22
same,log β CuH2L,[7]; [13],30.38 (2)
same,log β CuH3L,[7]; [13],37.33 (2)
same,log β CuH4L,[7]; [13],43.33 (1)
same,log β CuH5L,[7]; [13],48.56 (3)
same,log β CuH-1L,[7]; [13],3.73 (3)
same,log β CuH-2L,[7]; [13],-6.81 (4)
same,log β CuH-3L,[7]; [13],-18.72 (1)
same,log β CuHL,[7]; [13],22.44 (3)
same,log β CuL,[7]; [13],13.65 (3)
same,log β ZnH2L,[7]; [14],25.94 (2)
same,log β ZnH3L,[7]; [14],34.16 (3)
same,log β ZnH5L,[7]; [14],47.63 (12)
same,log β ZnL,[7]; [14],6.73 (14)
C[C@H]1COc2c(N3CCN(C)CC3)c(F)cc3c(=O)c(C(=O)O)cn1c23 [levofloxacin],MIC,[8],1 µg/mL
same,MIC,[9],1 µg/mL
same,MIC,[10],4 µg/mL
C[C@@H]1[C@H](O)[C@@H](C)/C=C/C=C/C=C/C=C/C=C/C=C/C=C/[C@H](O[C@@H]2O[C@H](C)[C@@H](O)[C@H](N)[C@@H]2O)C[C@@H]2O[C@](O)(C[C@@H](O)C[C@@H](O)[C@H](O)CC[C@@H](O)C[C@@H](O)CC(=O)O[C@H]1C)C[C@H](O)[C@H]2C(=O)O [amphotericin B],MIC,[11],1 µg/mL
CC[C@H](C)[C@H](NC(=O)[C@H](CCCCN)NC(=O)CNC(=O)[C@H](CC(C)C)NC(=O)[C@H](CC(C)C)NC(=O)[C@H](Cc1c[nH]cn1)NC(=O)[C@H](Cc1ccccc1)NC(=O)[C@@H](N)C(C)C)C(=O)N[C@H](C(=O)N[C@@H](Cc1c[nH]cn1)C(=O)N[C@@H](Cc1c[nH]cn1)C(=O)N[C@H](C(=O)NCC(=O)N[C@@H](CC(N)=O)C(=O)N[C@@H](Cc1ccccc1)C(=O)N[C@H](C(=O)N[C@@H](Cc1ccc(O)cc1)C(=O)NCC(=O)N[C@@H](Cc1ccccc1)C(=O)N[C@@H](CO)C(=O)N[C@@H](Cc1c[nH]cn1)C(=O)N[C@H](C(=O)N[C@@H](Cc1ccccc1)C(=O)O)C(C)C)C(C)C)C(C)C)[C@@H](C)CC [Clavanin C],MIC,[2],128 µg/mL
same,MIC,[4],128 µg/mL
same,MIC,[5],64 µg/mL
same,"pKa, species H2L",[6],8.87
same,"pKa, species H3L",[6],8.08
same,"pKa, species H4L",[6],7.57
same,"pKa, species H5L",[6],7.10
same,"pKa, species H6L",[6],5.25
same,"pKa, species HL",[6],10.72
same,"pKa, line CuH4L",[7],4.99
same,"pKa, line CuH-1L",[7],8.09
same,"pKa, line CuH-2L",[7],10.66
same,"pKa, line CuHL",[7],6.10
same,"pKa, line CuL",[7],6.98
